Measured values taken from US20070015771A1, “Lonidamine analogs” (Threshold pharmaceuticals, Inc., priority 2004, published 2007).
Like-named read-outs stand apart in the source and are kept apart here.

What was measured:
PWR-1E cells = assay: Antiproliferation assay 3 days, PWR-1E cells (Example 49); assay type: cell-based; conditions: read-out: PWR1e cell line IC50
Experimental: (§1) To determine the effect of lonidamine analogs thereof on cell proliferation, the antiproliferative activity of these compounds was tested in a multi-well Alamar Blue based assay (at 3 days). Cell growth in the presence and absence of the test compound was compared, as measured by a fluoresence plate reader at excitation 550 nm and emission 590 nm (see Biosource International Inc., Tech Application Notes, Use of Alamar Blue in the measurement of Cell Viability and Toxity, Determining IC50). The following cell lines were tested: PWR-1E cells ((ATCC CRL-11611), 3500 cells/well/200 μl in Keratinocyte SFM medium (Gibco Products, Invitrogen Corporation, Carlsbad, Calif.)); DU-145 cells ((ATCC HTB-81), 4000 cells/well/200 μl in MEM Eagles medium (ATCC, Manassas, Va.)); PC3 cells ((ATCC CRL-1435), 4000 cells/200 μl in Modified HAM's F12 medium (ATCC, Manassas, Va.)); PNt2 cells ((Sigma-Aldrich, 95012613-1 VL), 4000 cells/well/200 μl in RPMI medium (Gibco Products, Invitrogen Corporation, Carlsbad, Calif.), BPH-1 ((DSMZ ACC-143), 4000 cells/well/200 μl in RPMI medium (Gibco Products, Invitrogen Corporation, Carlsbad, Calif), and NCI-H460 cells ((ATCC HTB-177), 4000 cells/well/200 μl in RPMI medium (Gibco Products, Invitrogen Corporation, Carlsbad, Calif.)). The cells were seeded in a 96 well plate in a medium specified above. After 24 hours, these plates were divided into 2 groups—Control group and 3 day treatment group. A test compound was added to each plate in the treatment groups at concentrations of […] as tabulated in Table 1 (in 2 μl 1 of 100% DMSO, final DMSO concentration 1% in all wells). For NCI-H460 cells, test compounds were added to each plate in the treatment groups at concentrations of 600, 300, 100, 30, 10, 3, and 1 μM (in 2 μl of 100% DMSO, final DMSO concentration 1% in all wells). The cells in the 3 day treatment group were incubated for 3 days, followed by staining with AlamarBlue. In the Control group, AlamarBlue was added to the plate at (i) day 0 and (ii) day 3 and measured to establish the control reading. […] For the NCI-H460 cells, the capacity of the cells to proliferate was measured 5 hours after addition of AlamarBlue using the same fluorescence plate reader as stated above.

NCI-H460 cells = assay: Antiproliferation assay 3 days, NCI-H460 cells; assay type: cell-based; conditions: read-out: NCI-H460 cell line IC50
Experimental: as §1

SH rat prostate = assay: 5 day systemic administration in male SH rats, prostate; assay type: in vivo; parameters: inhibition in vivo: dose or concentration left out as unconfirmed
Experimental: The effect of test compounds (lonidamine and lonidamine analogs) on the SH rat prostate was determined as follows. The test compound was orally administered daily for 5 days to male, SH rat, (n=6, 14 weeks old, Charles River Labs) at 50 mg/ml concentrations (as a 0.5% carboxymethylcellulose formulation). The control rats received an equal amount of the vehicle ([…]). Blood samples were collected 2 hours after administration on day 6, for pharmokinetic analysis of the compounds. On day 6 the rats were sacrificed and the entire prostate and the individual lobes (e.g., the ventral, dorso-lateral, and anterior lobes) were removed and weighed to measure absolute weights. Relative weights of prostate and individual lobes were calculated by dividing the absolute weight by the total body weight of the […]. Relative weights of the entire prostate, the dorsal prostate, and the ventral prostate were calculated by dividing the absolute weight by the total weight of the mouse. The histomorphology of the prostate was also analyzed and compared to that of the control or untreated prostate.

testes = assay: 5 day systemic administration in male SH rats, testis; assay type: in vivo, rat; parameters: inhibition in vivo: dose or concentration left out as unconfirmed
H460 cells = assay: Antiproliferation assay (Alamar Blue), H460 cells; assay type: cell-based
Experimental: To determine the effect of lonidamine and analogs thereof on cell proliferation, the antiproliferative activity of these compounds was tested in a multi-well Alamar Blue based assay (at 2 h and 3 days). Cell growth in the presence and absence of the test compound (compounds 1-22) was compared, as measured by a fluorescence plate reader at excitation 550 nm and emission 590 nm (see Biosource International Inc., Tech Application Notes, Use of Alamar Blue in the measurement of Cell Viability and Toxicity, Determining IC50). H460 cells (ATCC HTB-177 ([…]), 4,000 cells/well/200 μl) and LNCap cells (ATCC CRL-1740, 6,000 cells/well/200 μl) were seeded in a 96 well plate in RPMI medium (Invitrogen Corporation, Carlsbad, Calif.). After 24 hours, these plates were divided into 3 groups—Control group, 2 h treatment group and 3 day treatment group. In the 2 h treatment group, after 2 h the cells were rinsed to remove the test compound and incubated for 3 days, followed by staining with AlamarBlue. The cells in the 3 day treatment group were incubated for 3 days, followed by staining with AlamarBlue. In the Control group, AlamarBlue was added to the plate at (i) day 0 and (ii) day 3 and measured to establish the control reading.

[1] = 3 day treatment, read-out: GI50 H460 cell 3 days
[2] = read-out: GI50 H460 cell 2 hr, 2 h treatment then 3 days incubation
[3] = male SH rats, oral daily for 5 days at 50 mg/ml, day 6
[4] = Homo sapiens, NCI-H460, 72 h, 3 day treatment
[5] = Homo sapiens, PWR-1E, 72 h, 3 day treatment

## O=C(NCCN1CCOCC1)c1nn(Cc2c(Cl)cccc2Cl)c2ccccc12 [Compound 43]
PWR-1E cells; 3 day treatment
  IC50: 45 µM

## O=C(O)c1nn(Cc2ccc3c(c2)OCO3)c2ccccc12 [Compound 74]
NCI-H460 cells; Homo sapiens, NCI-H460, 72 h
  IC50: 290 µM
PWR-1E cells; Homo sapiens, PWR-1E, 72 h
  IC50: > 100 µM

## O=C(O)c1nn(Cc2ccc(Cl)c(Cl)c2)c2ccccc12 [Compound 82]
NCI-H460 cells; Homo sapiens, NCI-H460, 72 h
  IC50: 128 µM
SH rat prostate; Rattus norvegicus, po, 144 h, read-out: Prostate shrinkage
  inhibition in vivo: 5%
PWR-1E cells; Homo sapiens, PWR-1E, 72 h
  IC50: 36 µM
testes; Rattus norvegicus, po, 144 h, read-out: Testis shrinkage
  inhibition in vivo: -1.1%

## O=C(O)c1nn(Cc2ccc(-c3ccccc3)cc2)c2ccccc12 [Compound 22]
H460 cells; [1]
  GI50: 158 µM
H460 cells; [2]
  GI50: > 400 µM
PWR-1E cells; 3 day treatment
  IC50: 25 µM

## O=C(c1nn(Cc2ccc(Cl)cc2Cl)c2ccccc12)N1CCOCC1 [Compound 48]
SH rat prostate; [3]
  Prostate shrinkage: 3.3%
PWR-1E cells; 3 day treatment
  IC50: > 10 µM
testes; [3]
  Testis shrinkage: 4.3%

## NC(=O)c1nn(Cc2c(Cl)cccc2Cl)c2ccccc12 [Compound 25]
PWR-1E cells; Homo sapiens, PWR-1E, 72 h
  IC50: > 100 µM

## O=Cc1nc(Cc2ccc(Cl)cc2Cl)n2ccccc12 [Compound 88]
NCI-H460 cells; [4]
  IC50: 48 µM
PWR-1E cells; [5]
  IC50: 12 µM

## O=C(NCCO)c1nn(Cc2ccc(Cl)cc2Cl)c2ccccc12 [Compound 10]
H460 cells; [1]
  GI50: 50 µM
H460 cells; [2]
  GI50: 78 µM
PWR-1E cells; 3 day treatment
  IC50: 14 µM

## O=C(O)c1cn(Cc2cc(Cl)ccc2Cl)c2ccccc12 [Compound 100]
NCI-H460 cells; Homo sapiens, NCI-H460, 72 h
  IC50: 125 µM

## O=C(O)c1nn(Cc2cc(Cl)ccc2F)c2ccccc12 [Compound 103]
NCI-H460 cells; Homo sapiens, NCI-H460, 72 h
  IC50: 219 µM
PWR-1E cells; Homo sapiens, PWR-1E, 72 h
  IC50: 132 µM

## O=C(O)c1nn(Cc2ccc(Cl)nc2)c2ccccc12 [Compound 94]
NCI-H460 cells; Homo sapiens, NCI-H460, 72 h
  IC50: > 600 µM

## O=Cc1nn(Cc2ccc(Cl)cc2Cl)c2ccccc12 [Compound 61]
PWR-1E cells; Homo sapiens, PWR-1E, 72 h
  IC50: 1.5 µM

## O=C(O)c1nn(S(=O)(=O)c2ccc(Cl)cc2Cl)c2ccccc12 [Compound 104]
NCI-H460 cells; 3 day treatment
  IC50: 195 µM
PWR-1E cells; 3 day treatment
  IC50: 19 µM

## O=C(O)c1c2ccccc2nn1S(=O)(=O)c1ccc(Cl)cc1Cl [Compound 105]
NCI-H460 cells; 3 day treatment
  IC50: 182 µM
PWR-1E cells; 3 day treatment
  IC50: 21 µM

## O=C(Nc1nccs1)c1nn(Cc2ccc(Cl)cc2Cl)c2ccccc12 [Compound 9]
H460 cells; [1]
  GI50: > 400 µM
H460 cells; [2]
  GI50: > 400 µM
PWR-1E cells; 3 day treatment
  IC50: > 100 µM

## NNC(=O)c1nn(Cc2c(Cl)cccc2Cl)c2ccccc12 [Compound 44]
PWR-1E cells; 3 day treatment
  IC50: > 10 µM

## O=C(O)c1nn(C(=O)c2ccc(Cl)cc2Cl)c2ccccc12 [Compound 98]
PWR-1E cells; [5]
  IC50: 4 µM

## CC(C)NC(=O)c1nn(Cc2ccccc2)c2ccccc12 [Compound 50]
PWR-1E cells; 3 day treatment
  IC50: 23 µM

## Cc1noc(C)c1Cn1nc(C(=O)O)c2ccccc21 [Compound 71]
PWR-1E cells; Homo sapiens, PWR-1E, 72 h
  IC50: > 300 µM

## Cc1ccc2c(c1)c(C(=O)NO)nn2Cc1ccc(Cl)cc1Cl [Compound 52]
PWR-1E cells; 3 day treatment
  IC50: 0.34 µM

## O=C(OC1O[C@H](C(=O)O)[C@@H](O)[C@H](O)[C@H]1O)c1nn(Cc2ccc(Cl)cc2Cl)c2ccccc12 (some centres unmarked) [Compound 15]
H460 cells; Homo sapiens, NCI-H460, 72 h, 3 day treatment, read-out: GI50 H460 cell 3 days
  GI50: 316 µM
H460 cells; Homo sapiens, NCI-H460, read-out: GI50 H460 cell 2 hr, 2 h treatment then 3 days incubation
  GI50: > 400 µM
PWR-1E cells; Homo sapiens, PWR-1E, 72 h
  IC50: 80 µM

## O=C(O)c1nn(Cc2ccccn2)c2ccccc12 [Compound 84]
NCI-H460 cells; Homo sapiens, NCI-H460, 72 h
  IC50: > 600 µM

## CONC(=O)c1nn(Cc2ccc(Cl)cc2Cl)c2ccc(C)cc12 [Compound 57]
PWR-1E cells; 3 day treatment
  IC50: 39 µM

## O=C(NO)c1nn(Cc2ccc(Cl)cc2Cl)c2ccc(F)cc12 [Compound 47]
PWR-1E cells; 3 day treatment
  IC50: 5.6 µM

## O=C(O)c1nn(Cc2cnc(Cl)c(Cl)c2)c2ccccc12 [Compound 87]
NCI-H460 cells; Homo sapiens, NCI-H460, 72 h
  IC50: 323 µM

## O=C(Nc1ccccn1)c1nn(Cc2ccc(Cl)cc2Cl)c2ccccc12 [Compound 7]
H460 cells; [1]
  GI50: 20 µM
H460 cells; [2]
  GI50: > 400 µM

## O=C(O)c1nn(Cc2ccccc2O)c2ccccc12 [Compound 76]
PWR-1E cells; Homo sapiens, PWR-1E, 72 h
  IC50: 288 µM

## O=C(O)c1nn(Cc2cc3c(cc2Cl)OCO3)c2ccccc12 [Compound 69]
PWR-1E cells; Homo sapiens, PWR-1E, 72 h
  IC50: 145 µM

## O=C(O)c1nn(Cc2ccc(Cl)nc2)c2ccccc12 [Compound 73]
PWR-1E cells; Homo sapiens, PWR-1E, 72 h
  IC50: > 300 µM

## CNC(=O)c1nn(Cc2c(Cl)cccc2Cl)c2ccccc12 [Compound 37]
PWR-1E cells; 3 day treatment
  IC50: 36 µM

## Cc1cc(Cn2nc(C(=O)O)c3ccccc32)n(C)n1 [Compound 75]
NCI-H460 cells; Homo sapiens, NCI-H460, 72 h
  IC50: > 180 µM
PWR-1E cells; Homo sapiens, PWR-1E, 72 h
  IC50: > 300 µM

## O=C(Nc1ccc(F)c(F)c1)c1nn(Cc2ccc(Cl)cc2Cl)c2ccccc12 [Compound 8]
H460 cells; [1]
  GI50: 316 µM
H460 cells; [2]
  GI50: > 400 µM
PWR-1E cells; 3 day treatment
  IC50: > 3 µM

## O=C(O)c1nn(Cc2ccncc2)c2ccccc12 [Compound 86]
NCI-H460 cells; Homo sapiens, NCI-H460, 72 h
  IC50: > 600 µM

## O=C(O)c1nc(Cc2ccc(Cl)cc2Cl)n2ccccc12 [Compound 89]
NCI-H460 cells; 3 day treatment
  IC50: 41 µM
PWR-1E cells; 3 day treatment
  IC50: 10 µM

## O=C(O)c1nn(Cc2ccccc2Cl)c2ccccc12 [Compound 27]
PWR-1E cells; 3 day treatment
  IC50: 30 µM

## CN(C)C(=O)c1nn(Cc2ccc(Cl)cc2Cl)c2ccccc12 [Compound 49]
PWR-1E cells; 3 day treatment
  IC50: > 100 µM

## COc1ccccc1Cn1nc(C(=O)O)c2ccccc21 [Compound 72]
PWR-1E cells; Homo sapiens, PWR-1E, 72 h
  IC50: 245 µM

## O=C(NC1CC1)c1nn(Cc2c(Cl)cccc2Cl)c2ccccc12 [Compound 46]
PWR-1E cells; 3 day treatment
  IC50: > 30 µM

## O=C(O)c1nn(Cc2cc(C(F)(F)F)ccc2Cl)c2ccccc12 [Compound 106]
NCI-H460 cells; Homo sapiens, NCI-H460, 72 h
  IC50: 4 µM

## O=C(O)c1nn(Cc2cccnc2)c2ccccc12 [Compound 85]
NCI-H460 cells; Homo sapiens, NCI-H460, 72 h
  IC50: > 600 µM

## OCc1nc(Cc2ccc(Cl)cc2Cl)n2ccccc12 [Compound 92]
NCI-H460 cells; [4]
  IC50: 43 µM
PWR-1E cells; [5]
  IC50: 11 µM

## N#Cc1cc(Cl)ccc1Cn1nc(C(=O)O)c2ccccc21 [Compound 95]
NCI-H460 cells; Homo sapiens, NCI-H460, 72 h
  IC50: 275 µM
PWR-1E cells; Homo sapiens, PWR-1E, 72 h
  IC50: 85 µM

## O=C(O)c1nn(Cc2ccc(O)cc2)c2ccccc12 [Compound 77]
PWR-1E cells; Homo sapiens, PWR-1E, 72 h
  IC50: > 100 µM
